Test results from the NIST ThermoML archive (doi:10.1016/j.tca.2007.05.014).
± gives the expanded uncertainty stated by the source.

What was measured:
[1] = Molar enthalpy of transition or fusion; details: Crystal; Adiabatic calorimetry
[2] = molar heat capacity at constant pressure; details: 101.33 kPa, Vacuum adiabatic calorimetry
[3] = Crystal; Adiabatic calorimetry

c1ccc(CSSCc2ccccc2)cc1 [1,4-diphenyl-2,3-dithiabutane]
Details	Molar enthalpy of transition or fusion [kcal/mol]	Triple point temperature [K]
[1]	10.75 ± 0.012	–
[3]	–	341.72 ± 0.17

[2]
Details	molar heat capacity at constant pressure [J/K/mol]
80 K, Crystal	108.82 ± 0.47
80.3 K, Crystal	108.33 ± 0.47
84.06 K, Crystal	111.79 ± 0.48
85 K, Crystal	111.44 ± 0.48
87.01 K, Crystal	113.48 ± 0.49
90 K, Crystal	116.01 ± 0.52
90.01 K, Crystal	116.34 ± 0.52
92.93 K, Crystal	118.76 ± 0.52
95 K, Crystal	122.1 ± 0.54
95.91 K, Crystal	122.02 ± 0.54
99.41 K, Crystal	127.8 ± 0.56
100 K, Crystal	129.33 ± 0.56
103.24 K, Crystal	135.01 ± 0.59
105 K, Crystal	137.39 ± 0.6
106.95 K, Crystal	141.28 ± 0.61
110 K, Crystal	145.99 ± 0.63
110.69 K, Crystal	147.39 ± 0.64
114.47 K, Crystal	153.91 ± 0.67
115 K, Crystal	154.9 ± 0.67
118.16 K, Crystal	160.1 ± 0.69
120 K, Crystal	163.94 ± 0.71
121.87 K, Crystal	169.57 ± 0.73
125 K, Crystal	172.98 ± 0.74
125.68 K, Crystal	176.87 ± 0.76
129.35 K, Crystal	179.77 ± 0.77
130 K, Crystal	181.89 ± 0.77
132.96 K, Crystal	185.92 ± 0.79
135 K, Crystal	190.59 ± 0.81
136.61 K, Crystal	192.1 ± 0.81
140 K, Crystal	199.02 ± 0.85
140.35 K, Crystal	197.02 ± 0.84
144.38 K, Crystal	205.28 ± 0.87
145 K, Crystal	207.16 ± 0.88
147.99 K, Crystal	211.7 ± 0.9
150 K, Crystal	214.97 ± 0.91
151.7 K, Crystal	217.62 ± 0.92
155 K, Crystal	222.48 ± 0.94
155.35 K, Crystal	222.51 ± 0.94
158.92 K, Crystal	228.58 ± 0.96
160 K, Crystal	229.68 ± 0.96
162.44 K, Crystal	233.74 ± 0.98
165 K, Crystal	236.6 ± 1
165.91 K, Crystal	238.97 ± 1
169.42 K, Crystal	243.63 ± 1
170 K, Crystal	243.29 ± 1
172.99 K, Crystal	248.31 ± 1
175 K, Crystal	249.78 ± 1
176.5 K, Crystal	252.64 ± 1.1
179.96 K, Crystal	257.05 ± 1.1
180 K, Crystal	256.1 ± 1.1
183.38 K, Crystal	260.66 ± 1.1
185 K, Crystal	262.31 ± 1.1
186.84 K, Crystal	265.34 ± 1.1
190 K, Crystal	268.46 ± 1.1
190.36 K, Crystal	269.4 ± 1.1
193.83 K, Crystal	273.35 ± 1.1
195 K, Crystal	274.58 ± 1.1
197.26 K, Crystal	277.29 ± 1.2
200 K, Crystal	280.71 ± 1.2
200.65 K, Crystal	280.28 ± 1.2
204 K, Crystal	284.27 ± 1.2
205 K, Crystal	286.91 ± 1.2
207.4 K, Crystal	288.01 ± 1.2
210 K, Crystal	293.18 ± 1.2
210.85 K, Crystal	291.95 ± 1.2
214.25 K, Crystal	296.05 ± 1.2
215 K, Crystal	299.57 ± 1.2
217.6 K, Crystal	300.68 ± 1.3
220 K, Crystal	306.1 ± 1.3
220.9 K, Crystal	305.02 ± 1.3
224.17 K, Crystal	310.55 ± 1.3
225 K, Crystal	312.77 ± 1.3
227.41 K, Crystal	316.71 ± 1.3
230 K, Crystal	319.61 ± 1.3
230.64 K, Crystal	324.45 ± 1.3
234.1 K, Crystal	331.98 ± 1.4
235 K, Crystal	326.59 ± 1.4
237.58 K, Crystal	333.36 ± 1.4
240 K, Crystal	333.73 ± 1.4
240.9 K, Crystal	338.86 ± 1.4
244.3 K, Crystal	341.63 ± 1.4
245 K, Crystal	341.01 ± 1.4
247.7 K, Crystal	342.44 ± 1.4
250 K, Crystal	348.41 ± 1.4
251 K, Crystal	347.57 ± 1.4
254.37 K, Crystal	353.48 ± 1.5
255 K, Crystal	355.91 ± 1.5
257.79 K, Crystal	359.5 ± 1.5
260 K, Crystal	363.48 ± 1.5
261.22 K, Crystal	363.54 ± 1.5
264.69 K, Crystal	369.67 ± 1.5
265 K, Crystal	371.1 ± 1.5
268.17 K, Crystal	374.81 ± 1.6
270 K, Crystal	378.73 ± 1.6
271.64 K, Crystal	381.1 ± 1.6
275 K, Crystal	386.35 ± 1.6
275.11 K, Crystal	386.26 ± 1.6
278.65 K, Crystal	391.99 ± 1.6
280 K, Crystal	393.93 ± 1.6
282.26 K, Crystal	396.6 ± 1.6
285 K, Crystal	401.44 ± 1.7
285.84 K, Crystal	402.1 ± 1.7
289.39 K, Crystal	410.38 ± 1.7
290 K, Crystal	408.86 ± 1.7
292.9 K, Crystal	417.2 ± 1.7
295 K, Crystal	416.2 ± 1.7
296.45 K, Crystal	417.2 ± 1.7
298.15 K, Crystal	420.77 ± 1.7
299.98 K, Crystal	422.24 ± 1.7
300 K, Crystal	423.44 ± 1.8
303 K, Crystal	427.75 ± 1.8
303.49 K, Crystal	427.76 ± 1.8
307 K, Crystal	437.99 ± 1.8
310.49 K, Crystal	432.45 ± 1.8
313.97 K, Crystal	443.61 ± 1.8
317.47 K, Crystal	440.2 ± 1.8
320.92 K, Crystal	443.39 ± 1.8
324.15 K, Crystal	448.33 ± 1.9
327.24 K, Crystal	479.87 ± 2
330.68 K, Crystal	494.5 ± 2.1
334.08 K, Crystal	565.94 ± 2.6
337.09 K, Crystal	842.59 ± 6.7
339.29 K, Crystal	2123.3 ± 32
340.75 K, Crystal	6689.9 ± 160
344.92 K, Liquid	1138.3 ± 43
350.93 K, Liquid	545.43 ± 2.5
355 K, Liquid	545.41 ± 2.2
355.68 K, Liquid	550.14 ± 2.3
359.31 K, Liquid	554.64 ± 2.3
360 K, Liquid	555.11 ± 2.3
362.99 K, Liquid	559.12 ± 2.3
365 K, Liquid	561.67 ± 2.3
366.65 K, Liquid	562.71 ± 2.3
370 K, Liquid	564.76 ± 2.3
370.29 K, Liquid	565.83 ± 2.3
373.91 K, Liquid	569.68 ± 2.4
375 K, Liquid	580.96 ± 2.4
377.39 K, Liquid	643.17 ± 2.7
